According to the Kinase Knowledgebase extract (Sharma et al. 2016):

These compounds were tested against MAPK14 (human) (UniProt Q16539) (assay: Inhibition of MAPK14 Kinase Activity).
MAPK14 (human), sequence (Q16539 whole entry, looked up): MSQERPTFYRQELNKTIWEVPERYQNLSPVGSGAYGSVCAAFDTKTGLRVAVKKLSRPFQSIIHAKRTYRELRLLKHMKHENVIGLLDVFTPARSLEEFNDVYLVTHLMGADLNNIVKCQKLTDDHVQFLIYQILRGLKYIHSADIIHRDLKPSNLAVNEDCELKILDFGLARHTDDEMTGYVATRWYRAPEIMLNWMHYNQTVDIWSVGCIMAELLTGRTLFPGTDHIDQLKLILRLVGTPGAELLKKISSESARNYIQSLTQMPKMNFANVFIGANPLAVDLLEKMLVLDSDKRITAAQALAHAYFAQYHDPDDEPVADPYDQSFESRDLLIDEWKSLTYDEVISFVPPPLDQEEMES

Row | IC50 [µM] | Structure (SMILES)
1 | ≤ 1 | Cc1onc(-c2ccccc2)c1-c1ccn(C(=O)NC(C)C)n1
2 | ≤ 1 | CCC(=O)C(=O)NCc1nc(-c2ccc(F)cc2)c(-c2nc(C(=O)NC(C)C)cs2)o1
3 | ≤ 1 | CC(C)NC(=O)c1csc(-c2oc(CN3CCN(C(=O)c4c(F)c(F)c(F)c(F)c4F)CC3)nc2-c2ccc(F)cc2)n1
4 | ≤ 1 | CC(C)NC(=O)c1csc(-c2oc(CNC(=O)Cc3ccccc3O)nc2-c2ccc(F)cc2)n1
5 | ≤ 1 | CC(C)NC(=O)c1csc(-c2oc(CNC(=O)C(O)CCl)nc2-c2ccc(F)cc2)n1 (stereo not drawn)
6 | ≤ 1 | COc1ccc(CNC(=O)c2csc(-c3sc(C)nc3-c3ccc(F)cc3)n2)cc1
7 | ≤ 1 | CC(C)NC(=O)c1csc(-c2c(-c3ccc(F)cc3)n[nH]c2C2CCN(C(=O)c3ccncc3)CC2)n1
8 | ≤ 1 | CC(C)NC(=O)c1csc(-c2c(-c3ccc(F)cc3)noc2CNCCN2CCCC2)n1
9 | ≤ 1 | CC(C)NC(=O)c1csc(-c2c(-c3ccc(F)cc3)n[nH]c2C2CCN(C(=O)c3cc(O)c(O)c(O)c3)CC2)n1
10 | ≤ 1 | Cc1cccc([N+](=O)[O-])c1C(=O)N1CCN(Cc2nc(-c3ccc(F)cc3)c(-c3nc(C(=O)NC(C)C)cs3)o2)CC1
11 | ≤ 1 | CC(C)NC(=O)c1csc(-c2oc(CNC(=O)c3cc(C(C)C)cc(C(C)C)c3O)nc2-c2ccc(F)cc2)n1
12 | ≤ 1 | CC(C)NC(=O)c1csc(-c2oc(CN3CCN(C(=O)c4cnc(O)c(Cl)c4)CC3)nc2-c2ccc(F)cc2)n1
13 | ≤ 1 | O=C(NCC(F)(F)F)c1csc(-c2c(-c3ccc(F)cc3)ncn2C2CCNCC2)n1
14 | ≤ 1 | CC(C)NC(=O)c1csc(-c2c(-c3ccc(F)cc3)noc2C2CCN(C(=O)CO)CC2)n1
15 | ≤ 1 | COc1cc(OC)c(C(=O)N2CCN(Cc3nc(-c4ccc(F)cc4)c(-c4nc(C(=O)NC(C)C)cs4)o3)CC2)cc1OC
16 | ≤ 1 | CC(C)NC(=O)c1csc(-c2c(-c3ccc(F)cc3)noc2CN)n1
17 | ≤ 1 | Cc1nc(-c2ccc(F)cc2)c(-c2nc(C(=O)NCCCN3CCOCC3)cs2)s1
18 | ≤ 1 | CC(C)NC(=O)c1csc(-c2oc(CNC(=O)C(C)c3ccc(O)cc3)nc2-c2ccc(F)cc2)n1 (stereo not drawn)
19 | ≤ 1 | COCC(C)NC(=O)c1csc(-c2sc(C)nc2-c2ccc(F)cc2)n1 (stereo not drawn)
20 | ≤ 1 | CC(C)NC(=O)c1csc(-c2c(-c3ccc(F)cc3)noc2CN2CCCC2CO)n1 (stereo not drawn)
21 | ≤ 1 | CC(C)NC(=O)c1csc(-c2oc(CN3CCN(C(=O)c4ccc(N(C)C=O)cc4)CC3)nc2-c2ccc(F)cc2)n1

Row | IC50 [µM] | Structure (SMILES)
22 | ≤ 1 | CC(C)NC(=O)c1csc(-c2oc(CN3CCN(C(=O)c4cc(O)ccc4O)CC3)nc2-c2ccc(F)cc2)n1
23 | ≤ 1 | CC(C)NC(=O)c1csc(-c2oc(CN3CCN(C(=O)c4cccc5ccccc45)CC3)nc2-c2ccc(F)cc2)n1
24 | ≤ 1 | Cc1nc(-c2ccc(F)cc2)c(-c2nc(C(=O)NCCNC(=O)OC(C)(C)C)cs2)s1
25 | ≤ 1 | C#CCNC(=O)c1csc(-c2c(-c3ccc(F)cc3)n[nH]c2C2CCNCC2)n1
26 | ≤ 1 | CC(C)NC(=O)c1csc(-c2oc(CN3CCN(C(=O)C(C)(C)C)CC3)nc2-c2ccc(F)cc2)n1
27 | ≤ 1 | CC(C)NC(=O)c1csc(-c2c(-c3ccc(F)cc3)ncn2C)n1
28 | ≤ 1 | CC(C)NC(=O)c1csc(-c2c(-c3ccc(F)cc3)noc2CNCC#N)n1
29 | ≤ 1 | COc1ccc(C(=O)N2CCN(Cc3nc(-c4ccc(F)cc4)c(-c4nc(C(=O)NC(C)C)cs4)o3)CC2)c(OC)c1OC
30 | ≤ 1 | CC(C)NC(=O)c1csc(-c2oc(CN3CCN(C(=O)c4ccc5ncccc5c4)CC3)nc2-c2ccc(F)cc2)n1
31 | ≤ 1 | CC(C)NC(=O)c1csc(-c2oc(CN3CCN(C(=O)CC4Cc5ccccc5C4)CC3)nc2-c2ccc(F)cc2)n1
32 | ≤ 1 | Cc1ccc(O)c(C(=O)N2CCN(Cc3nc(-c4ccc(F)cc4)c(-c4nc(C(=O)NC(C)C)cs4)o3)CC2)c1
33 | ≤ 1 | O=C(NC1CCCC1)c1csc(-c2c(-c3ccc(F)cc3)n[nH]c2C2CCNCC2)n1
34 | ≤ 1 | COCCNCc1nc(-c2ccc(F)cc2)c(-c2nc(C(=O)NC(C)C)cs2)o1
35 | ≤ 1 | COc1ccc(O)c(C(=O)N2CCN(Cc3nc(-c4ccc(F)cc4)c(-c4nc(C(=O)NC(C)C)cs4)o3)CC2)c1
36 | ≤ 1 | COc1ccc(CNCc2nc(-c3ccc(F)cc3)c(-c3nc(C(=O)NC(C)C)cs3)o2)cc1O
37 | ≤ 1 | Cc1nc(-c2ccc(F)cc2)c(-c2nc(C(=O)NCc3cc(F)cc(F)c3)cs2)s1
38 | ≤ 1 | CC(C)NC(=O)c1csc(-c2c(-c3ccc(F)cc3)n[nH]c2C2CCN(C(=O)C(C)O)CC2)n1 (stereo not drawn)
39 | ≤ 1 | CC(C)NC(=O)c1csc(-c2oc(CNC(=O)c3cccc(F)c3F)nc2-c2ccc(F)cc2)n1
40 | ≤ 1 | CC(C)NC(=O)c1csc(-c2oc(CNC(=O)c3ccccc3C(=O)c3ccc(O)cc3)nc2-c2ccc(F)cc2)n1
41 | ≤ 1 | Cc1nc(-c2ccc(F)cc2)c(-c2nc(C(=O)NCc3ccc(F)c(F)c3)cs2)s1
42 | ≤ 1 | CC(C)NC(=O)c1csc(-c2[nH]c(CN(C)C)nc2-c2ccc(F)cc2)n1

Row | IC50 [µM] | Structure (SMILES)
43 | ≤ 1 | CC(C)NC(=O)c1csc(-c2oc(CN3CCN(C(=O)c4cc(O)c(O)c(O)c4)CC3)nc2-c2ccc(F)cc2)n1
44 | ≤ 1 | CC(C)NC(=O)c1csc(-c2oc(CN3CCN(C(=O)CCc4ccccc4O)CC3)nc2-c2ccc(F)cc2)n1
45 | ≤ 1 | COc1ccc(NC(=O)c2csc(-c3sc(C)nc3-c3ccc(F)cc3)n2)c(C)c1
46 | ≤ 1 | COc1ccccc1CCNC(=O)c1csc(-c2sc(C)nc2-c2ccc(F)cc2)n1
47 | ≤ 1 | CC(C)NC(=O)c1csc(-c2oc(CNC(=O)c3cccc(C#N)c3)nc2-c2ccc(F)cc2)n1
48 | ≤ 1 | CC1=C(CCC(=O)N2CCN(Cc3nc(-c4ccc(F)cc4)c(-c4nc(C(=O)NC(C)C)cs4)o3)CC2)C=CCO1
49 | ≤ 1 | CC(C)NC(=O)c1csc(-c2oc(CNC(=O)C=Cc3ccc(Cl)cc3)nc2-c2ccc(F)cc2)n1
50 | ≤ 1 | C#CCNC(=O)c1csc(-c2c(-c3ccc(F)cc3)ncn2C2CCN(C(=O)CO)CC2)n1
51 | ≤ 1 | Cc1nc(-c2ccc(F)cc2)c(-c2nc(C(=O)Nc3ccccc3-c3ccccc3)cs2)s1
52 | ≤ 1 | CC(C)NC(=O)c1csc(-c2oc(CNC(=O)C(F)(F)F)nc2-c2ccc(F)cc2)n1
53 | ≤ 1 | CCOC(=O)CC1C(=O)NCCN1C(=O)c1csc(-c2sc(C)nc2-c2ccc(F)cc2)n1 (stereo not drawn)
54 | ≤ 1 | COc1cccc(OC)c1C(=O)N1CCN(Cc2nc(-c3ccc(F)cc3)c(-c3nc(C(=O)NC(C)C)cs3)o2)CC1
55 | ≤ 1 | CC(C)NC(=O)c1csc(-c2oc(CNC(=O)Cc3cccc(O)c3)nc2-c2ccc(F)cc2)n1
56 | ≤ 1 | Cc1nc(-c2ccc(F)cc2)c(-c2nc(C(=O)N3CCCC4CCCCC43)cs2)s1 (stereo not drawn)
57 | ≤ 1 | CC(C)NC(=O)c1csc(-c2oc(CNC(=O)c3ccc(OCc4ccccc4)cc3)nc2-c2ccc(F)cc2)n1
58 | ≤ 1 | Cc1cccc(CCC(=O)N2CCN(Cc3nc(-c4ccc(F)cc4)c(-c4nc(C(=O)NC(C)C)cs4)o3)CC2)c1
59 | ≤ 1 | Cc1ccc(F)cc1C(=O)NCc1nc(-c2ccc(F)cc2)c(-c2nc(C(=O)NC(C)C)cs2)o1
60 | ≤ 1 | CC(=O)NCC(=O)NCc1nc(-c2ccc(F)cc2)c(-c2nc(C(=O)NC(C)C)cs2)o1
61 | ≤ 1 | Cc1nc(-c2ccc(F)cc2)c(-c2nc(C(=O)NCC3CCCO3)cs2)s1 (stereo not drawn)
62 | ≤ 1 | CC(C)NC(=O)c1csc(-c2oc(CNC(=O)c3cccnc3)nc2-c2ccc(F)cc2)n1

Row | Structure (SMILES) | IC50 [µM]
63 | CC(C)NC(=O)c1csc(-c2oc(CN3CCN(C(=O)Cc4cccc(O)c4)CC3)nc2-c2ccc(F)cc2)n1 | ≤ 1
